Results published in US12221494B2, “Short synthetic peptides and their uses for treating retinal degenerative diseases and/or tissue injuries” (MacKay Memorial Hospital, priority 2019, dated 2025).
Ends that are not written are not given here.

Columns and labels:
survivin mRNA = experiment: Real-time qPCR of survivin mRNA in C2C12 cells; format: cell-based, mouse; settings: for survivin mRNA induction, in words / survivin mRNA induction compared to solvent control: C2C12 cells in low serum media, 20 μM peptide, 6 h
Experimental: Total RNA was extracted from cells using TRIzol (Invitrogen). Synthesis of cDNA was performed with 1 μg of total RNA at 50° C. for 50 min using oligo(dT) primers and reverse transcriptase (Superscript III; Invitrogen). Briefly, quantification of cDNA was performed in the LightCycler (Roche, Mannheim, Germany) using the DNA Master SYBR Green I kit (Roche) with the following cycling conditions: initial denaturation at 95° C. for 10 min, followed by 40 cycles at 95° C. for 10 s, 60° C. for 10 s, and 72° C. for 10 s and a 5-min terminal incubation at 72° C. The data were calculated with AACt. The expression was then normalized against the expression of glyceraldehyde-3-phosphate dehydrogenase (GAPDH). The PCR primers were mouse Survivin sense, 5′-[…]-3′ (SEQ ID NO: 27), anti-sense, 5′-[…]-3′ (SEQ ID NO: 28) (accession number: NM_001012273.1; PCR product: 136 bp); mouse GAPDH sense, 5′-[…]-3′ (SEQ ID NO: 29), anti-sense, 5′-[…]-3′ (SEQ ID NO: 30) (NM_001289726.1; 149 bp). For analysis rabbit inflammatory gene expression, The PCR primers were rabbit TNF-αsense, 5′-[…]-3′ (SEQ ID NO: 31), anti-sense, 5′-[…]-3′ (SEQ ID NO: 32) (accession number: NM 001082263.1); rabbit IL-1βsense, 5′-[…]-3′(SEQ ID NO: 33), anti-sense, 5′-[…]-3′ (SEQ ID NO: 34) (NM 001082201.1); rabbit GAPDH sense, 5′-[…]-3′ (SEQ ID NO: 35), anti-sense, 5′-[…]-3′ (SEQ ID NO: 36) (accession number:NM 001082253.1). The cycle threshold (Ct) values of the PCR product and a GAPDH (Glyceraldehyde 3-phosphate dehydrogenase) control mRNA were used to calculate relative quantities of mRNA.
Similar to the approach in Example 1.2.1, the expression level of survivin mRNA in C2C12 cells was used as an indicator for the function of the 6-mer variants in Tables 3 to 5. Briefly, C2C12 cells in low serum media were treated with 20 μM the 6-mer variants for 6 h. […] The results also confirmed that alanine substation at the glutamic acid (E) residues would severely impair the 6-mer activity.

[1] = test system: Sprague-Dawley rats, retinal ischemia/reperfusion (I/R) injury; experiment: TUNEL staining of I/R-injured rat retina (20 h); format: in vivo; settings: for Number of TUNEL-positive cells in retina: subconjunctival injection 1 mM 4 h before I/R, 20 hours after I/R injury, Vehicle + I/R 27.2 ± 2.7; for I/R-induced retinal cell apoptosis (TUNEL staining), in words: subconjunctival injection prior to I/R, 20 h reperfusion
Experimental: Experimental procedures were approved by the Mackay Memorial Hospital Review Board (Taiwan, R.O.C.). All surgeries were performed under aseptic conditions. Adult 10-week-old male Sprague-Dawley rats (initial body weight=312±11 g) were anesthetized by an intraperitoneal injection of xylazine (10 mg/kg). Peptide was dissolved in 0.85% normal saline to 1 mM and delivered by the subconjunctival injection of 100 μL peptide through a 31-Gneedle with a micro-syringe before the induction of I/R. Normal saline was as a vehicle control. Rat I/R was performed after peptide or vehicle injection for 4 h. Pupils were dilated with 0.5% tropicamide and 0.5% phenylephrine. Body temperature was maintained at 37° C. using a heating blanket After dilation of the pupil, the anterior chamber of the right eye was cannulated with a 27-gauge needle connected to a physiological saline reservoir. The intraocular pressure (IOP) was raised to 110 mmHg by keeping the reservoir at 150 cm above the eye, and retinal ischemia was confirmed by observing whitening of the iris and the loss of the red reflex of the retina. After 90 min of ischemia, the cannulating needle was withdrawn and the IOP was returned to normal pressure, resulting in recovery of the blood supply from the retinal artery and reperfusion injury induced. The reperfusion was evident by the return of the red reflex. Corneal analgesia was achieved using 1 or 2 drops of 0.4% oxybuprocaine hydrochloride, and Ofloxacin ophthalmic gel (0.3%) was applied topically to the eye before and after the procedure. Only the right eye was used in all experiments. A sham procedure was performed at left eye served as an intra-animal control.
After I/R for 20 h, rats (n=6 in each group) were euthanized by an overdose of pentobarbital. Enucleated eyeballs were fixed in 4% PFA for 24 h at 4° C. Fixed retinal tissues were embedded in paraffin. To identify apoptosis of retinal cells, 5 μm sections thick cut through the optic disc, de-paraffinized, rehydrated, incubatedwith 20 μg/mL proteinase K for 10 min, and immunofluorescence staining of apoptotic cells was performed using a terminal deoxynucleotidyl transferase(TdT)-mediated dUTP nick-end labeling (TUNEL)-based kit (Roche Molecular Biochemicals, Indianapolis, IN) according to the manufacturer's instructions. Nuclei were located by counterstaining with Hoechst 33258 for 7 min Sections were observed under an epifluorescence microscope (Zeiss Axioplan 2 imaging; Zeiss, Oberkochen, Germany) equipped with a charge-coupled device (CCD) camera (Zeiss AxioCam HRm, Zeiss) (×400, 6 fields/sample), and quantification was performed using Axiovert software (Zeiss AxioVision Release 4.8.2, Zeiss). Three sections per eye were averaged and the mean of six eyes was recorded as the representative value for each group.
In this example, the neuroprotective effect of the 6-mer variant peptides on neural retina cells and retinal capillary system was investigated using a rat model of I/R injury described in the “Material and Methods” section. Briefly, 6-mer variant peptide (1 mM, 120 μl) was injected into the subconjunctival space of Sprague-Dawley rats for 4 h before the induction of I/R. Then, I/R injury was induced in rat retinas by increasing the intraocular pressure (IOP) in the eye to 110 mmHg for 90 min, followed by 20 h of reperfusion. Subsequently, the level of retinal cell apoptosis was evaluated using TUNEL staining. In addition, the retinal morphology was analyzed with H&E staining 14 days after the I/R injury. Results are summarized in FIGS. 6 to 10, and Tables 6 to 9.

Compound | survivin mRNA induction, in words (survivin mRNA) | survivin mRNA induction compared to solvent control (survivin mRNA) [fold] | other results
O=[N+]([O-])c1ccc2c(c1)S(=O)(=O)C=C2 [STAT3 inhibitor V, reference compound] | – | – | survivin mRNA expression induced by the 6-mer dS in cells pretreated with STAT3 inhibitor (survivin mRNA; C2C12 cells, 2.6-fold without inhibitor): 1.3 fold
NH2-Ser-(D-Leu)-Gly-Ala-Glu-Gln-COOH (SLGAEQ; HELM PEPTIDE1{S.[dL].G.A.E.Q}$$$$V2.0; SMILES CC(C)C[C@@H](NC(=O)[C@@H](N)CO)C(=O)NCC(=O)N[C@@H](C)C(=O)N[C@@H](CCC(=O)O)C(=O)N[C@@H](CCC(N)=O)C(=O)O) [6-mer dL] | hamper the survivin gene induction activity significantly | – | –
NH2-Ser-Ala-Gly-Ala-Glu-Gln-COOH (SAGAEQ; not fully specified (N-terminus, C-terminus); printed as NH2-Ser-Ala-Gly-Ala-Glu-Gln-COOH) [6-mer La] | – | 1.5 | –
NH2-Ser-Ile-Gly-Ala-Glu-Gln-COOH (SIGAEQ; not fully specified (N-terminus, C-terminus); printed as NH2-Ser-Ile-Gly-Ala-Glu-Gln-COOH) [6-mer Li] | – | 2.1 | Number of TUNEL-positive cells in retina [1]: 9.8 ± 1.4 /200 μm; I/R-induced retinal cell apoptosis (TUNEL staining), in words [1]: reduced the retinal cell apoptosis induced by I/R
NH2-Ser-Leu-Ala-Ala-Glu-Gln-COOH (SLAAEQ; not fully specified (N-terminus, C-terminus); printed as NH2-Ser-Leu-Ala-Ala-Glu-Gln-COOH) [6-mer Ga] | – | 1.6 | –
NH2-Ser-Leu-Asn-Ala-Glu-Gln-COOH (SLNAEQ; not fully specified (N-terminus, C-terminus); printed as NH2-Ser-Leu-Asn-Ala-Glu-Gln-COOH) [6-mer Gn] | – | 1.5 | –
NH2-Ser-Leu-Gly-Ala-(D-Glu)-Gln-COOH (SLGAEQ; HELM PEPTIDE1{S.L.G.A.[dE].Q}$$$$V2.0; SMILES CC(C)C[C@H](NC(=O)[C@@H](N)CO)C(=O)NCC(=O)N[C@@H](C)C(=O)N[C@H](CCC(=O)O)C(=O)N[C@@H](CCC(N)=O)C(=O)O) [6-mer dE] | moderate induction on survivin mRNA level | – | –
NH2-Ser-Leu-Gly-Ala-Asp-Gln-COOH (SLGADQ; not fully specified (N-terminus, C-terminus); printed as NH2-Ser-Leu-Gly-Ala-Asp-Gln-COOH) [6-mer Ed] | severely impaired the survivin mRNA induction | – | –
NH2-Ser-Leu-Gly-Ala-Glu-(D-Gln)-COOH (SLGAEQ; HELM PEPTIDE1{S.L.G.A.E.[dQ]}$$$$V2.0; SMILES CC(C)C[C@H](NC(=O)[C@@H](N)CO)C(=O)NCC(=O)N[C@@H](C)C(=O)N[C@@H](CCC(=O)O)C(=O)N[C@H](CCC(N)=O)C(=O)O) [6-mer dQ] | hamper the survivin gene induction activity significantly | – | –
NH2-Ser-Leu-Gly-Ala-Glu-Ala-COOH (SLGAEA; not fully specified (N-terminus, C-terminus); printed as NH2-Ser-Leu-Gly-Ala-Glu-Ala-COOH) [6-mer Qa] | – | 1.6 | –
NH2-Ser-Leu-Gly-Ala-Glu-Asn-COOH (SLGAEN; not fully specified (N-terminus, C-terminus); printed as NH2-Ser-Leu-Gly-Ala-Glu-Asn-COOH) [6-mer Qn] | – | 2.1 | Number of TUNEL-positive cells in retina [1]: 12.5 ± 0.89 /200 μm; I/R-induced retinal cell apoptosis (TUNEL staining), in words [1]: reduced the retinal cell apoptosis induced by I/R
NH2-Ser-Leu-Gly-Glu-Glu-Gln-COOH (SLGEEQ; not fully specified (N-terminus, C-terminus); printed as NH2-Ser-Leu-Gly-Glu-Glu-Gln-COOH) [6-mer Ae] | – | 1.5 | –
NH2-Ser-Leu-Gly-Gly-Glu-Gln-COOH (SLGGEQ; not fully specified (N-terminus, C-terminus); printed as NH2-Ser-Leu-Gly-Gly-Glu-Gln-COOH) [6-mer Ag] | – | 1.5 | –
NH2-Ser-Leu-Gly-Ile-Glu-Gln-COOH (SLGIEQ; not fully specified (N-terminus, C-terminus); printed as NH2-Ser-Leu-Gly-Ile-Glu-Gln-COOH) [6-mer Ai] | severely impaired the survivin mRNA induction | – | –
NH2-Ser-Leu-Gly-Ser-Glu-Gln-COOH (SLGSEQ; not fully specified (N-terminus, C-terminus); printed as NH2-Ser-Leu-Gly-Ser-Glu-Gln-COOH) [6-mer As] | severely impaired the survivin mRNA induction | – | –
